Our source for the IC50 values is patent publication US20250019377A1 (JACOBIO PHARMACEUTICALS CO., LTD, priority 2021, published 2025).

Test [1] concerns the target T1, K-Ras G12V (Homo sapiens, UniProt P01116, G12V). In words: SOS1 catalyzed nucleotide exchange assay (GDP form K-Ras), K-Ras G12V. Conditions: read-out: K-Ras G12V GDP Biochemical Activity (IC50).
Test [2] deals with T2, K-Ras WT (Homo sapiens, UniProt P01116). In words: SOS1 catalyzed nucleotide exchange assay (GDP form K-Ras), K-Ras WT. Conditions: read-out: K-Ras WT GDP Biochemical Activity (IC50).
The target of the next test is K-Ras G12D (Homo sapiens, UniProt P01116, G12D). In words: biochemical.
Test [3] concerns p-ERK in AGS cells (K-Ras G12D). In words: Phospho-ERK1/2(THR202/TYR204) HTRF assay, AGS. In kind it is cell-based. To be noted: Homo sapiens, 2 h, 2 hours incubation. (In general: Time-resolved FRET reads energy transfer from a long-lived donor to a nearby acceptor.)
The test system of test [4] is p-ERK in SW620 cells (K-Ras G12V). In words: Phospho-ERK1/2(THR202/TYR204) HTRF assay, SW620. The format is cell-based. Conditions: Homo sapiens, SW-620, 2 h, 2 hours incubation.
The subject of the next test is AGS cells (K-Ras G12D). In words: 2D cell growth inhibition assay, AGS. In kind it is cell-based. Conditions: Homo sapiens, 144 h, 6 days, absolute IC50.
Test [5] concerns AsPC-1 cells (K-Ras G12D). In words: 2D cell growth inhibition assay, AsPC-1. The format is cell-based. Conditions: Homo sapiens, ASPC1, 144 h, AsPC-1, K-Ras G12D, 6 days, absolute IC50.
The next test relates to SW620 cells (K-Ras G12V). In words: 2D cell growth inhibition assay, SW620. The format is cell-based. To be noted: Homo sapiens, SW-620, 144 h, 6 days, absolute IC50.
Test [6] concerns the target T1, K-Ras G12V. In words: biochemical.
Test [7] has as its target T2, K-Ras WT. In words: biochemical.

K-Ras G12D, sequence (P01116 1-169 isoform P01116-2 G12D): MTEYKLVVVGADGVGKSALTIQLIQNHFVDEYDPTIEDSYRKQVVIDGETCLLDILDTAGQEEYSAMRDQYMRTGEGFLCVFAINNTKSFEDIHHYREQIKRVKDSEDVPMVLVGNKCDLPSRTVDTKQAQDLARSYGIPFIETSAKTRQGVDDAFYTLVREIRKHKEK
T1 sequence (P01116 1-169 isoform P01116-2 G12V): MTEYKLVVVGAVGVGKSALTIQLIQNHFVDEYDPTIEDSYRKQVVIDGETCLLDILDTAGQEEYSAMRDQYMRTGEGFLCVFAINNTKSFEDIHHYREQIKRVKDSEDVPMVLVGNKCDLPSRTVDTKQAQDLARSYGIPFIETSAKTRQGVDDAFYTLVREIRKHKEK
T2 sequence (P01116 1-169 isoform P01116-2): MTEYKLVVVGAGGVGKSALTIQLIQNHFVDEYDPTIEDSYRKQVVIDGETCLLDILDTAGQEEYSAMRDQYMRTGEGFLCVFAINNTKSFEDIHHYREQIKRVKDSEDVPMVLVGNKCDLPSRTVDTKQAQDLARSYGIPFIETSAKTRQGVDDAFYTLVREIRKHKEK

As to `C#Cc1c(F)ccc2cc(B(O)O)cc(-c3ncc4c(N5CCCOCC5)nc(OC[C@@]56CCCN5C[C@H](F)C6)nc4c3F)c12` [Compound 90], the IC50 (in general, the point on the concentration scale where inhibition reaches its midpoint) on K-Ras G12V [1] was determined as 26.5 nM; at K-Ras WT [2] it was 19.8 nM; at K-Ras G12D, 27.2 nM.
With `C#Cc1c(F)ccc2cc(O)cc(-c3ncc4c(N5CCOC[C@H](O)C5)nc(OC[C@@]56CCCN5C[C@H](F)C6)nc4c3F)c12` (single isomer, unassigned) [Compound 46A], the 50% inhibitory concentration (IC50) worked out at 3.12 nM on K-Ras G12V [1]; 7.95 nM on K-Ras WT [2]; 83.9 nM in test [3]; 321 nM in test [4]; 187 nM with AGS cells (K-Ras G12D); 2870 nM in [5]. Further, the values for the IC50 in the test on SW620 cells (K-Ras G12V), on K-Ras G12V [6] and on K-Ras WT [7] were 630 nM, 343 nM and 394 nM, respectively.
Turning to `C#Cc1c(F)ccc2cc(OC(=O)C34CC5CC(CC(C5)C3)C4)cc(-c3ncc4c(N5CCCOCC5)nc(OC[C@@]56CCCN5C[C@H](F)C6)nc4c3F)c12` [Compound 74, 5-ethynyl-6-fluoro-4-(8-fluoro-2-(((2R,7aS)-2-fluorotetrahydro-1H-pyrrolizin-7a(5H)-yl)methoxy)-4-(1,4-oxazepan-4-yl)pyrido[4,3-d]pyrimidin-7-yl)naphthalen-2-yl adamantane-1-carboxylate trifluoroacetic acid], the values for the half-inhibitory concentration (IC50) on K-Ras G12V [1], on K-Ras WT [2] and at K-Ras G12D were 69.1 nM, 119 nM and 136 nM, respectively.
`C#Cc1c(F)ccc2cc(O)cc(-c3ncc4c(N5CCOC[C@@H](C)C5)nc(OC[C@@]56CCCN5C[C@H](F)C6)nc4c3F)c12` (single isomer, unassigned) [Compound 13A]: the IC50 on K-Ras G12V [1] was 4.08 nM; at K-Ras WT [2], 5.99 nM; in test [3] it was 44.4 nM; in [4], 42.3 nM; with AGS cells (K-Ras G12D), 122 nM; in test [5], 680 nM. The IC50 in the test with SW620 cells (K-Ras G12V) was determined as 93.6 nM; on K-Ras G12V [6], 1210 nM; at K-Ras WT [7], 794 nM.
Turning to `C#Cc1c(F)ccc2cc(OC(=O)C(C)C)cc(-c3ncc4c(N5CCCOCC5)nc(OC[C@@]56CCCN5C[C@H](F)C6)nc4c3F)c12` [Compound 45, 5-ethynyl-6-fluoro-4-(8-fluoro-2-(((2R,7aS)-2-fluorotetrahydro-1H-pyrrolizin-7a(5H)-yl)methoxy)-4-(1,4-oxazepan-4-yl)pyrido[4,3-d]pyrimidin-7-yl)naphthalen-2-yl isobutyrate trifluoroacetic acid], the figures for the IC50 on K-Ras G12V [1], on K-Ras WT [2] and against K-Ras G12D were 4.96 nM, 2.52 nM and 2.37 nM, respectively.
Regarding `C#Cc1c(F)ccc2cc(OC(=O)C(C)(C)C)cc(-c3ncc4c(N5CCCOCC5)nc(OC[C@@]56CCCN5C[C@H](F)C6)nc4c3F)c12` [Compound 73, 5-ethynyl-6-fluoro-4-(8-fluoro-2-(((2R,7aS)-2-fluorotetrahydro-1H-pyrrolizin-7a(5H)-yl)methoxy)-4-(1,4-oxazepan-4-yl)pyrido[4,3-d]pyrimidin-7-yl)naphthalen-2-yl pivalate trifluoroacetic acid], the concentration for half-maximal inhibition (IC50) came out at 18.7 nM at K-Ras G12V [1], 31.6 nM on K-Ras WT [2] and 20.7 nM on K-Ras G12D.
Turning to `C#Cc1c(F)ccc2cc(OC(=O)[C@H](Cc3c[nH]c4ccccc34)NC(C)=O)cc(-c3ncc4c(N5CCCOCC5)nc(OC[C@@]56CCCN5C[C@H](F)C6)nc4c3F)c12` [Compound 44, 5-ethynyl-6-fluoro-4-(8-fluoro-2-(((2R,7aS)-2-fluorotetrahydro-1H-pyrrolizin-7a(5H)-yl)methoxy)-4-(1,4-oxazepan-4-yl)pyrido[4,3-d]pyrimidin-7-yl)naphthalen-2-yl acetyl-L-tryptophanate trifluoroacetic acid], the IC50 worked out at 0.862 nM on K-Ras G12V [1] and 1.46 nM on K-Ras G12D.
Turning to `C#Cc1c(F)ccc2cc(OC(=O)C(c3ccccc3)N(C)C)cc(-c3ncc4c(N5CCCOCC5)nc(OC[C@@]56CCCN5C[C@H](F)C6)nc4c3F)c12` (stereo partly drawn) [Compound 59, 5-ethynyl-6-fluoro-4-(8-fluoro-2-(((2R,7aS)-2-fluorotetrahydro-1H-pyrrolizin-7a(5H)-yl)methoxy)-4-(1,4-oxazepan-4-yl)pyrido[4,3-d]pyrimidin-7-yl)naphthalen-2-yl 2-(dimethylamino)-2-phenylacetate trifluoroacetic acid], the IC50 on K-Ras G12V [1] is 1.34 nM; on K-Ras G12D it was 0.866 nM.
As to `C#Cc1c(F)ccc2cc(OC(=O)[C@@H](N)C(C)C)cc(-c3ncc4c(N5CCCOCC5)nc(OC[C@@]56CCCN5C[C@H](F)C6)nc4c3F)c12` [Compound 60, 5-ethynyl-6-fluoro-4-(8-fluoro-2-(((2R,7aS)-2-fluorotetrahydro-1H-pyrrolizin-7a(5H)-yl)methoxy)-4-(1,4-oxazepan-4-yl)pyrido[4,3-d]pyrimidin-7-yl)naphthalen-2-yl L-valinate trifluoroacetic acid], the half-inhibitory concentration (IC50) at K-Ras G12V [1] came out at 1.32 nM; against K-Ras G12D, 0.664 nM.
Turning to `C#Cc1c(F)ccc2cc(OCc3cn(C)c([N+](=O)[O-])n3)cc(-c3ncc4c(N5CCCOCC5)nc(OC[C@@]56CCCN5C[C@H](F)C6)nc4c3F)c12` [Compound 139, 4-(7-(8-ethynyl-7-fluoro-3-((1-methyl-2-nitro-1H-imidazol-4-yl)methoxy)naphthalen-1-yl)-8-fluoro-2-(((2R,7aS)-2-fluorotetra-hydro-1H-pyrrolizin-7a(5H)-yl)methoxy)pyrido[4,3-d]pyrimidin-4-yl)-1,4-oxazepane], the IC50 on K-Ras G12V [1] was determined as 92.7 nM; against K-Ras G12D, 112 nM.
Taken in the same sequence, the figures for `C#Cc1c(F)ccc2cc(OC(=O)CC[C@@H](C)[C@H]3CC[C@H]4[C@@H]5[C@H](O)C[C@@H]6C[C@H](O)CC[C@]6(C)[C@H]5C[C@H](O)[C@]34C)cc(-c3ncc4c(N5CCCOCC5)nc(OC[C@@]56CCCN5C[C@H](F)C6)nc4c3F)c12` [Compound 62, 5-ethynyl-6-fluoro-4-(8-fluoro-2-(((2R,7aS)-2-fluorotetrahydro-1H-pyrrolizin-7a(5H)-yl)methoxy)-4-(1,4-oxazepan-4-yl)pyrido[4,3-d]pyrimidin-7-yl)naphthalen-2-yl (R)-4-((3R,5S,7R,8R,9S,10S,12S,13R,14S,17R)-3,7,12-trihydroxy-10,13-dimethylhexadecahydro-1H-cyclopenta[a]phenanthren-17-yl)pentanoate trifluoroacetic acid] were 6.51 nM and 4.13 nM.
In the case of `C#Cc1c(F)ccc2cc(OC(=O)CN(C)C)cc(-c3ncc4c(N5CCCOCC5)nc(OC[C@@]56CCCN5C[C@H](F)C6)nc4c3F)c12` [Compound 61, 5-ethynyl-6-fluoro-4-(8-fluoro-2-(((2R,7aS)-2-fluorotetrahydro-1H-pyrrolizin-7a(5H)-yl)methoxy)-4-(1,4-oxazepan-4-yl)pyrido[4,3-d]pyrimidin-7-yl)naphthalen-2-yl dimethylglycinate trifluoroacetic acid], the 50% inhibitory concentration (IC50) at K-Ras G12V [1] came out at 1.28 nM; against K-Ras G12D, 0.653 nM.
With `C#Cc1c(F)ccc2cc(OC(=O)OCC)cc(-c3ncc4c(N5CCCOCC5)nc(OC[C@@]56CCCN5C[C@H](F)C6)nc4c3F)c12` [Compound 5, ethyl (5-ethynyl-6-fluoro-4-(8-fluoro-2-(((2R,7aS)-2-fluorotetrahydro-1H-pyrrolizin-7a(5H)-yl)methoxy)-4-(1,4-oxazepan-4-yl)pyrido[4,3-d]pyrimidin-7-yl)naphthalen-2-yl) carbonate], the IC50 turned out to be 4.18 nM on K-Ras G12V [1], 2.71 nM at K-Ras WT [2] and 2.93 nM at K-Ras G12D.
In the case of `C#Cc1c(F)ccc2cc(O)cc(-c3c(SC(F)(F)F)cc4c(N5CCCOCC5)nc(OC[C@@]56CCCN5C[C@H](F)C6)nc4c3F)c12` [Compound 41, 5-ethynyl-6-fluoro-4-(8-fluoro-2-(((2R,7aS)-2-fluorotetrahydro-1H-pyrrolizin-7a(5H)-yl)methoxy)-4-(1,4-oxazepan-4-yl)-6-((trifluoromethyl)thio)quinazolin-7-yl)naphthalen-2-ol trifluoroacetic acid], the IC50 on K-Ras G12V [1] came to 6.88 nM; at K-Ras WT [2], 14.9 nM; in the test with AGS cells (K-Ras G12D) it was 62.2 nM; in test [5], 238 nM; in the test on SW620 cells (K-Ras G12V), 88.8 nM; on K-Ras G12V [6] it was 32.4 nM. Besides, 82.4 nM corresponded to half-maximal inhibition at K-Ras WT [7] (IC50).
As for `C#Cc1c(F)ccc2cc(OC(=O)CCCCCCCCCCCCCCC)cc(-c3ncc4c(N5CCCOCC5)nc(OC[C@@]56CCCN5C[C@H](F)C6)nc4c3F)c12` [Compound 6, 5-ethynyl-6-fluoro-4-(8-fluoro-2-(((2R,7aS)-2-fluorotetrahydro-1H-pyrrolizin-7a(5H)-yl)methoxy)-4-(1,4-oxazepan-4-yl)pyrido[4,3-d]pyrimidin-7-yl)naphthalen-2-yl palmitate trifluoroacetic acid], the IC50 at K-Ras G12V [1] was found to be 25 nM; on K-Ras WT [2], 39.7 nM; on K-Ras G12D, 21.2 nM.
On to `C#Cc1c(F)ccc2cc(OC(=O)N(C)C)cc(-c3ncc4c(N5CCCOCC5)nc(OC[C@@]56CCCN5C[C@H](F)C6)nc4c3F)c12` [Compound 4, 5-ethynyl-6-fluoro-4-(8-fluoro-2-(((2R,7aS)-2-fluorotetrahydro-1H-pyrrolizin-7a(5H)-yl)methoxy)-4-(1,4-oxazepan-4-yl)pyrido[4,3-d]pyrimidin-7-yl)naphthalen-2-yl dimethylcarbamate], for which the results for the concentration for half-maximal inhibition (IC50) at K-Ras G12V [1], at K-Ras WT [2] and against K-Ras G12D were 1000 nM, 479 nM and 127 nM, respectively.
